Patent publication US12569170B2, “Paramagnetic sodium NMR macrocyclic-based biosensors, and associated methods” (Yale University, priority 2021, dated 2026)
Where “and” joins values, the source holds several entries; their conditions need not be identical. Identical values can stand only once.

Assays:
[1] = In vitro ^23Na-NMR, two-compartment coaxial cylinder tube (^23Na shiftability); type: physicochemical
Source text: The goal of these studies was to separate the total Na^+ signal (Na^+T) into distinct signals for blood (Na^+b), interstitial (Na^+e), and intracellular (Na^+i) pools (FIG. 1). The shifting mechanism induced by exogenous TmDOTP^5− and endogenous biological factors on the ^23Na chemical shift in vitro is depicted in FIGS. 1C-1G. A two-compartment coaxial cylinder NMR tube setup in vitro was used to mimic Na^+ in interstitial/intracellular pools. The inner (smaller) and outer (larger) compartments both contained 150 mM NaCl while the latter also contained TmDOTP^5− at various concentrations. The setup was subjected to several different pH and temperature conditions. The inner compartment, which lacked TmDOTP^5− to represent the intracellular space in vivo, produced a small but unshifted ^23Na peak at 0 ppm. The larger ^23Na peak was shifted downfield by TmDOTP^5−, with the difference in peak integrals stemming from different compartment volumes.
The ^23Na shiftability for TmDOTP^5− s[paraCA^n−]=[…] was 11.1×larger than the shiftability for pH (spH=0.25 ppm/pH unit) and 92.3×larger than the shiftability for temperature (sT=0.03 ppm/° C.). This means that addition of 1.1 mM TmDOTP^5− would induce a ˜3 ppm shift in the ^23Na peak. Conversely, a maximal change of 0.4 in pH units, which is observed between normal and tumor tissues, would induce only a ˜0.1 ppm ^23Na shift. A similar ^23Na shift by temperature would require a 3.3° C. change, which is unlikely in vivo. Based on the pH and temperature ranges observed in vivo (including tumors), the effect from [TmDOTP^5−] dominates the ^23Na chemical shift by 95%. Therefore, [TmDOTP^5−] is several orders of magnitude more sensitive in shifting the ^23Na resonance than typical in vivo factors. Furthermore, the ^23Na shiftability arising from [TmDOTP^5−] and pH/temperature effects is much larger than T2 broadening from TmDOTP^5− (FIG. 1C). […] (FIGS. 1D-1E). However, for in vivo scenarios the ranges shown for pH (2 full pH units) and temperature (15° C. interval) are overestimated, and where [Na^+] far exceeds [TmDOTP^5−] based on prior experiments. In blood and interstitial spaces, [Na^+] is ˜30-100×greater than [TmDOTP^5−].
In vitro experiments were performed using a 2-compartment coaxial cylindrical 7-inch NMR tube setup from WilmadLabGlass (Vineland, NJ, USA). One compartment contained 150 mM NaCl and the other contained the same but with varying amounts of TmDOTP^5− (1-10 mM) and 10% v/v ^2H2O to lock the spectrometer frequency using the ^2H2O signal. NaCl and ^2H2O were purchased from Sigma-Aldrich (St. Louis, MO, USA), and TmDOTP^5− was purchased as the sodium salt Na5TmDOTP from Macrocyclics (Plano, TX, USA). The 5-mm opening of the NMR tube permitted an insert (the inner compartment) whose 50-mm-long tip had inner and outer diameters of 1.258 and 2.020 mm, respectively. The outer-to-inner volume ratio between the two compartments was 8.6. The geometry of the setup allowed 645 μL total in the outer compartment to fill around the tip. Each solution was pH-adjusted using HCl or KOH to give 5 different pH values.
^23Na-NMR spectra were collected on a Bruker Avance III HD 500 MHz vertical-bore spectrometer (Bruker, Billerica, MA, USA) interfaced with Bruker TopSpin v2.1 software. A Bruker 500 MHz TBO liquid broadband probe with z-gradient was used in all frequencies, and an inner coil was used to detect X-nuclei. A single ^23Na square pulse (50 μs) was used to globally excite the volume of interest (repetition time TR=275 ms) collecting 2048 free induction decay (FID) points in the time domain with an acquisition time taq=38.9 ms, averaged 4096 times. Each set of scans was repeated at a series of temperatures: 27, 30, 34, 37, and 40° C. Spectra were analyzed using 10 Hz line broadening (for improved delineation of major peaks and reduction of baseline noise) and manual zeroth- and first-order phasing. […]

[2] = Bulk magnetic susceptibility (BMS) contribution to chemical shift in phantoms; type: physicochemical; details: phantoms parallel, perpendicular to B0 and spherical
Source text: Upon translation of the present in vitro results to in vivo situations, certain confounding factors must be addressed. In the interstitial space, there are additional cations such as calcium (Ca^2+), magnesium (Mg^2+) and K^+ which will also bind to anionic contrast agents like TmDOTP^5−. However, physiologically their concentrations are low compared to Na^+. […] Additionally, there is a contribution to the chemical shift from bulk magnetic susceptibility (BMS) changes brought about by TmDOTP^5− in addition to the hyperfine shifts induced by interactions with Na^+. Experiments were performed on different DOTP^8− salts in phantoms parallel and perpendicular to the main magnetic field B0, and also spherical phantoms in which there was no BMS contribution. Only a small portion (˜2%) of the total chemical shift for TmDOTP^5− was due to BMS arising due to anisotropy of the paramagnetic susceptibility, and the remainder was the hyperfine shift.

[3] = doses presently being used for preclinical studies; cited from earlier work
[4] = cited from earlier work

## O=P([O-])([O-])CN1CCN(CP(=O)([O-])[O-])CCN(CP(=O)([O-])[O-])CCN(CP(=O)([O-])[O-])CC1.[Na+].[Na+].[Na+].[Na+].[Na+].[Tm+3] [TmDOTP^5−, sodium thulium (III) 1,4,7,10-tetraazacyclododecane-1,4,7,10-tetrakis(methylenephosphonate)]
[1]; 1-2 mM TmDOTP^5−
  ^23Na shifts caused by in vivo agent concentrations: 2.8-5.5 ppm
[1]; addition of 1.1 mM TmDOTP^5−
  shift in the ^23Na peak induced by addition of agent: ~3 ppm
[1]; in vitro, 150 mM NaCl with TmDOTP^5−
  ^23Na shiftability for pH (spH): 0.25 ppm/pH unit
[1]; in vitro, 150 mM NaCl with TmDOTP^5−, 27-40° C.
  ^23Na shiftability for temperature (sT): 0.03 ppm/° C.
[1]; maximal change of 0.4 pH units between normal and tumor tissue
  ^23Na shift variation caused by pH: ~0.1 ppm
[1]; ratio
  shiftability for TmDOTP^5− relative to shiftability for pH: 11.1 ×
  shiftability for TmDOTP^5− relative to shiftability for temperature: 92.3 ×
[1]; temperature difference ~0.5° C.
  ^23Na shift variation caused by temperature: 0.015 ppm
[1]; versus pH and temperature ranges observed in vivo
  share of the ^23Na chemical shift dominated by [TmDOTP^5−] effect: 95% and 96-98%
[2]
  portion of the total chemical shift due to BMS: ~2%
[3]
  toxicity: non-toxic
[4]; infusion protocol with probenecid, without renal ligation
  TmDOTP^5− in the cortex and subcortex: ~0.1 μmol TmDOTP^5−/g BW
[4]; rat, in vivo
  in vivo concentrations in blood and interstitial spaces: 1 to 2 mM
